Reference: paper PMC6523531, “Mechanistic Studies on the Absorption-Enhancing Effects of Gemini Surfactant on the Intestinal Absorption of Poorly Absorbed Hydrophilic Drugs in Rats” (Pharmaceutics, 2019)

What was measured:
[1] = tested on: brush-border membrane vesicles (BBMVs); test: Membrane fluidity of BBMVs by fluorescence polarization (fluorescence anisotropy); conditions: rat BBMVs, 37 °C, SLG-30 0.1-1.0% v/v, vs control, n = 4
Procedure: To prepare BBMVs, we followed the methods as reported previously with a slight modification. Briefly, an in situ small intestinal loop was prepared in each rat, as mentioned above, and then, PBS (pH 7.4) was administered into the loop. The fat was trimmed off from the small intestine and mesentery. Then, the whole small intestine was soaked in ice-cold PBS (pH 7.4). The small intestine was divided into 10 cm segments. Mucosa was scraped out with a slide glass from each of these segments and used for subsequent studies. BBMVs were prepared by the divalent cation precipitation method using MgCl2 in the presence of ethylenebis (oxyethylenenitrilo) tetraacetic acid (EGTA). Briefly, the collected mucosa was homogenized in a buffer containing mannitol (300 mM), EGTA (5 mM), and Tris (pH 7.4) (12 mM) by using a tissue homogenizer. An aqueous solution of 10 mM magnesium chloride was added to the homogenate. The homogenate was centrifuged at 3000× g for 15 min. The supernatant was then centrifuged at 32,000× g for 30 min. The pellet was resuspended in a buffer containing mannitol (300 mM), EGTA (5 mM), and Tris (pH 7.4) (12 mM) by using a 26-G needle. The protein concentration was determined by the BCA method using bovine serum albumin as a standard, and the final concentration was adjusted to 1 mg/ml in each Eppendorf tube. The samples were frozen by liquid nitrogen and kept at −80 °C for further studies.
The BBMVs (100 μg protein) were incubated with 1 μM DPH, with 0.5 μM tma-DPH or with 5 μM DNS-Cl in HEPES-Tris buffer (25 mM HEPES, 5.4 mM KCl, 1.8 mM CaCl2, 0.8 mM MgSO4, 140 mM NaCl, 5 mM glucose, pH 7.4 adjusted by 1 M Tris) in the dark at 37 °C for 30 min [25, 28]. Then, various concentrations (0.1% v/v, 0.25% v/v, 0.5% v/v, and 1.0% v/v) of SLG-30 were added. Then, the samples were incubated in the dark for 1 min at 37 °C. For the control group, the same procedure was carried out by adding the HEPES-Tris buffer only. The fluorescence intensities and the steady-state polarization of fluorescence expressed as the fluorescence anisotropy, r, of the labeled membrane vesicles were measured at 37 °C. The excitation and emission wavelengths were λex = 360 nm, and λem = 430 nm for DPH and tma-DPH and λex = 380 nm and λem = 480 nm for DNS-Cl. The measurements were carried out by using a Hitachi Spectrofluorometer (F-2000 Spectrofluorometer, Hitachi Seisakusho Corp, Yokohama, Japan) equipped with a polarizer set.
The fluorescence anisotropy (r) was calculated using the following equation: r=IV−IH/IV+2IH where IV and IH respectively represent the […] fluorescence intensities to the polarized excitation plane.

[2] = tested on: rat small intestines; test: In situ closed-loop enteric absorption of CF with absorption enhancers; format: in vivo; conditions: for Enhancement Ratio (AUC with enhancer/AUC control without enhancer): CF 0.5 mg/kg, rat small intestine
Procedure: The enteric absorption of CF was examined by an in situ closed-loop method, as reported previously. The experiments were carried out in accordance with the guidelines of the Animal Ethics Committee at Kyoto Pharmaceutical University. The protocols were approved by this Committee (permit number: 16-12-069, permit date: 14 April 2016). The rats were starved overnight for approx. 16 h pre-dosing, but water was freely available. After inducing anesthesia with sodium pentobarbital which was administered intraperitoneally at a dose of 32 mg/kg body weight, the rats were placed under a heat lamp to maintain a body temperature at around 37 °C, and the intestines were exposed using a midline-abdominal incision. After the bile duct was ligated, the intestines were washed with phosphate buffered saline (PBS, pH 7.4), and the remaining buffer solution was expelled with air. Enteric cannulation was performed at both ends using polyethylene tubing, and the distal parts of the small intestines were clipped by forceps. The dosing solutions (3 mL) with or without absorption enhancers kept at 37 °C, were directly introduced into the lumen of the enteric loop through a cannulated opening in the proximal part of the small enteric loop, which was then closed by clipping with another forceps. The jugular vein was exposed, and approx. 0.3 mL of blood was collected via a direct puncture into heparinized syringes at predetermined time intervals up to 240 min. The samples were immediately centrifuged at 12,000 rpm (15,000× g) for a period of 5 min to obtain the plasma fraction, which was stored on ice for further analysis. CF fluorescence signals in these plasma samples were detected after the treatment with the same volume of acetonitrile using a fluorescence spectrophotometer, Powerscan1 HT supplied by BioTek Instruments (Winooski, VT, USA) at an excitation wavelength of 485 nm and an emission wavelength of 535 nm. There was no significant background fluorescence in the plasma when the fluorescence intensities of CF were determined in this study. The peak drug concentrations (Cmax) and the time to reach the peak drug concentrations (Tmax) in the plasma were directly determined from the plasma concentration–time profiles. The area under the curve (AUC) was calculated by the trapezoidal method from pre-dose (time zero) till the administration of the final sample. The absorption enhancement ratios of CF, with or without absorption enhancers, were calculated as follows: Absorption enhancement ratio = AUCwith enhancer/AUCcontrol without enhancer

[3] = tested on: Caco-2 cell monolayers; test: Transepithelial electrical resistance (TEER) of Caco-2 cell monolayers; format: cell-based, Human
Procedure: (§1) Caco-2 cells (passage 45) were cultured in 175-cm^2 culture flask (Thermo Fisher Scientific™, Waltham, MA, USA). The culture medium consisted of DMEM containing 10% FBS, 0.1 mM MEM–NEAA, 2 mM glutamine, 100 U/mL penicillin, and 100 µg/mL streptomycin [30]. Cells were cultured in a humidified atmosphere of 5% CO2 at 37 °C. The culture medium was changed every two days. When the cultured Caco-2 cells became sub-confluent, they were seeded onto 12-mm Transwell® with 0.4-µm pore polycarbonate membrane inserts (Corning Inc., New York, NY, USA) at a density of 1 × 10^5 cells/insert. The transepithelial transport studies were performed when the transepithelial electrical resistance (TEER) values were more than 500 Ω·cm^2 (i.e., after 21 days). Briefly, after removing the incubation medium by aspiration, the apical and basal sides were washed thrice by Hank’s Balanced Salt (HBSS) solution (pH 7.4). The cells were incubated in HBSS (pH 6.0) for the apical side and HBSS (pH 7.4) for the basal side for 20 min at 37 °C. HBSS supplemented with 1 mg/mL glucose was used in all cell culture experiments. After removing the washing solution by aspiration, 500 µL of 10 µM CF in a HBSS (pH 6.0) solution with or without various concentrations (0.001% v/v, 0.01% v/v, 0.025% v/v, 0.05% v/v, and 0.1% v/v) of SLG-30, 0.1% (w/v) and 1% (w/v) NaGC or 0.05% (w/v) sodium laurate were added to the apical side at zero time, whereas precisely 1500 µL of HBSS (pH 7.4) was added to the basal side at 37 °C. The cells were kept at 37 °C and 5% CO2 and were continuously agitated on a shaker during the transport experiments.
(§2) The TEER values were measured by Millicell® (ERS-2 Volt-Ohm Meter, Billerica, MA, USA) at the predetermined times up to 24 h, and the initial values were considered as 100%. The samples from the basal side were withdrawn at predetermined time points up to 24 h. The samples were replaced with an equal volume of HBSS (pH 7.4). CF was determined as previously mentioned. The apparent permeability coefficients Papp (cm/s) for the transported CF was determined by the following equation: Papp=dXR/dt×1/A×1/C0 where Papp is the apparent permeability coefficient in centimeters per second, XR is the amount of CF in moles in the receptor side, dXR/dt is the flux across the monolayer, A is the diffusion area (i.e., in square centimeters), and C0 is the initial concentration of CF in the donor side in moles per milliliter.

[4] = tested on: Caco-2 cell monolayers; test: Transport of CF across Caco-2 cell monolayers; format: in vitro ADME, Human; conditions: 10 µM CF
Procedure: as §1, with “After removing the washing solution by aspiration, 500 µL of 10 µM CF in a HBSS (pH 6.0) solution with or without various concentrations (0.001% v/v, 0.01% v/v, 0.025% v/v, 0.05% v/v, and 0.1% v/v) of SLG-30, 0.1% (w/v) and 1% (w/v) NaGC or 0.05% (w/v) sodium laurate were added to the apical side at zero time, whereas precisely 1500 µL of HBSS (pH 7.4) was added to the basal side at 37 °C. The cells were kept at 37 °C and 5% CO2 and were continuously agitated on a shaker during the transport experiments.” left out
as §2, with “The samples from the basal side were withdrawn at predetermined time points up to 24 h. The samples were replaced with an equal volume of HBSS (pH 7.4).” left out

[5] = tested on: Caco-2 cells; test: Caco-2 cell damage by LDH release; format: cell-based, Human; conditions: after the transport studies, n = 6
Procedure: After the transport studies were over, the solution on the apical side of each well was collected. Cell injury caused by SLG-30 was determined by tracking the LDH release. The cell precipitate and the monolayers left on the filters were solubilized with 1% (v/v) Triton X-100. The solutions from apical sides and the lysates were centrifuged for 7 min at 200× g at a temperature of 4 °C. The activities of LDH in the supernatant were measured. (LDHrelease) stands for the activity of the LDH released into the apical side in the existence of SLG-30. (LDHcell) stands for the activity of the LDH obtained from the cell lysate. LDHreleased% was calculated by the following equation:LDHrelease% = LDHrelease × 100/(LDHrelease + LDHcells)

[6] = in situ closed loop, 0.5% (v/v) SLG-30, 0.5% (w/v) sodium laurate, 1% (w/v) sodium glycocholate

Row | SMILES | fluorescence anisotropy of tma-DPH (outer lipid bilayers) ([1]; 0.5 μM tma-DPH) | fluorescence anisotropy of DPH (inner lipid bilayers) ([1]; 1 μM DPH) | fluorescence anisotropy of DNS-Cl (protein portion) ([1]; 5 μM DNS-Cl, p < 0.01) | Enhancement Ratio (AUC with enhancer/AUC control without enhancer) [2, 6] | Tmax of CF ([2]; plasma CF (0.5 mg/kg) given with enhancer into rat small intestine, in situ closed loop, 0.5% (v/v) SLG-30, 0.5% (w/v) sodium laurate, 1% (w/v) sodium glycocholate, mean ± S.E., n = 3) | TEER values ([3]; 0.05% (w/v) sodium laurate, without recovering to the baseline) | increase of the transport of CF vs control ([4]; 0.05% (w/v) sodium laurate) [times] | activity of LDH released from Caco-2 cells vs control ([5]; 0.05% (w/v) sodium laurate) | AUC0→240 of CF higher than that of the control group ([2]; rat in situ closed loop, 0.5% (v/v) SLG-30 or 1% (w/v) NaGC) [times] | TEER values ([3]; 0.1% (w/v) NaGC) | TEER values ([3]; 1% (w/v) NaGC) | effect on the transport of CF ([4]; 0.1% (w/v) NaGC) | increase of the transport of CF vs control ([4]; 1% (w/v) NaGC) [times] | release of LDH from Caco-2 cells vs control ([5]; 0.1% (w/v) and 1% (w/v) NaGC)
1 | CC(C)CCC[C@@H](C)[C@H]1CC[C@H]2[C@@H]3CC=C4C[C@@H](O)CC[C@]4(C)[C@H]3CC[C@]12C [cholesterol] | increased the fluorescence anisotropy | increased the fluorescence anisotropy | increased the fluorescence anisotropy | – | – | – | – | – | – | – | – | – | – | –
2 | CCCCCCCCCCCC(=O)[O-].[Na+] [Sodium laurate, sodium laurate] | – | – | – | 2.7 | approximately 15 min | significantly reduced | 94 | significantly increased | – | – | – | – | – | –
3 | C[C@H](CCC(=O)NCC(=O)[O-])[C@H]1CC[C@H]2[C@@H]3[C@H](O)C[C@@H]4C[C@H](O)CC[C@]4(C)[C@H]3C[C@H](O)[C@]12C.[Na+] [Sodium glycocholate, sodium glycocholate] | – | – | – | 4.5 | – | – | – | – | 4.5 | Almost no effect | significantly decreased then recovered to the baseline | insignificant effect | 5 | Neither 0.1% (w/v) nor 1% (w/v) of NaGC increased the release of LDH
